Measured values reported in patent US7449465B2, “Triazolopyrimidine derivatives as glycogen synthase kinase 3 inhibitors” (Janssen Pharmaceutica, N.V., priority 2003, dated 2008).
Counter-ions that a name gives are not always drawn.

Assays:
GSK3β = GSK3β (Homo sapiens, UniProt P49841); assay: GSK3beta assay (SPA, biotinylated phosphorylated CREB peptide, ATP-P33); format: biochemical; conditions: ranges of pIC50 (−log IC50 (M)); 1 μM ATP, room temperature, one hour; read-out: GSK3b pIC50 (converted)
Sequence of GSK3β (P49841 whole entry, species assumed): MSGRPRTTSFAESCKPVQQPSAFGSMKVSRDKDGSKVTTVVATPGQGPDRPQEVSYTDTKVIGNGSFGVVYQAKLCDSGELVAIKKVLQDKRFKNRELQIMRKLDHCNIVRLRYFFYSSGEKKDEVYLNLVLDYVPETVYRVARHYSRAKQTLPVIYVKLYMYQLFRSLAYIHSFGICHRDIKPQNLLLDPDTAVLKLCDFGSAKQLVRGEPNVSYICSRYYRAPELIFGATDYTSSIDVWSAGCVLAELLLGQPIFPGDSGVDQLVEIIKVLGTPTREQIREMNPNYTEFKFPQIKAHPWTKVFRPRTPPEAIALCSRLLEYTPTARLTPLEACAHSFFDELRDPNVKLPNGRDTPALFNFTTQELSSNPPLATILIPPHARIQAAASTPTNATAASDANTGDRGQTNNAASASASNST
Protocol: (§1) GSK3beta assays were performed at room temperature in a 100 μl reaction volume of 25 mM Tris (pH 7.4) containing 10 mM MgCl2.6H2O, 1 mM DTI, 0.1 mgiml BSA, 5% glycerol and containing 5.7 ng/μl GSK3β, 5 μM biotinylated phosphorylated CREB peptide, 1 μM ATP, 0.85 μCi/ml ATP-P^33 and a suitable amount of a test compound of formula (I). After one hour, the reaction was terminated by adding 70 μl of Stop mix (0.1 mM ATP, 5 mg/ml streptavidin coated PVT SPA bead pH 11.0). The beads to which the phosphorylated CREB peptide is attached were allowed to settle overnight and the radioactivity of the beads was counted in a microtiterplate scintillation counter and compared with the results obtained in a control experiment (without the presence of a test compound) in order to determine the percentage of GSK3β inhibition. The IC50 value, i.e. the concentration (M) of the test compound at which 50% of GSK3β is inhibited, was calculated from the dose response curve obtained by performing the above-described GSK3β assay in the presence of different amounts of the test compound.

GSK3alpha = GSK3alpha (Homo sapiens, UniProt P49840); assay: GSK3alpha assay (same as the GSK3beta assay, 0.25 ng/μl GSK3alpha); format: biochemical; conditions: ranges of pIC50 (−log IC50 (M)), 1 μM ATP, read-out: GSK3a pIC50 (converted)
Sequence of GSK3alpha (P49840 whole entry, species assumed): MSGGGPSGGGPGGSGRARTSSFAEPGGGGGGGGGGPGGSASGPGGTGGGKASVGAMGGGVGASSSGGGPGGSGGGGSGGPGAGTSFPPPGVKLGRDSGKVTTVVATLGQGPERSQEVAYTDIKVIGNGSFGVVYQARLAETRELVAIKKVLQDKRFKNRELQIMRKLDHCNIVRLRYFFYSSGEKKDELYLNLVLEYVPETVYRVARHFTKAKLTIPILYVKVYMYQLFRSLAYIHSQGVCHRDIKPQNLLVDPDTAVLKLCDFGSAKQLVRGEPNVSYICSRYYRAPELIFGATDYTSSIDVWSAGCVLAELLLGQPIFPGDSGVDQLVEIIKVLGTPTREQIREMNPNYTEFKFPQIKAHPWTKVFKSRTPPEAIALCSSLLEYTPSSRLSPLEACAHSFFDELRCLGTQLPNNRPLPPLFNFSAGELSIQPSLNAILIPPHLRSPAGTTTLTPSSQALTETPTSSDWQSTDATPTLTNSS
Protocol: as §1
The GSK3alpha assay was performed in the same way as described above for the GSK3beta assay except for the concentration of GSK3alpha which is 0.25 ng/μl.

melting point	IC50 (GSK3β)	IC50 (GSK3alpha)	Compound
> 260 °C			Brc1cccc(-n2nnc3cnc(Nc4cccc(C5=NCNC5)c4)nc32)c1 (as salt: HCl) [Compound 43]
> 250 °C			NCc1cccc(-n2nnc3cnc(Nc4cccc(-c5cnco5)c4)nc32)c1 (as salt: HCl) [Compound 114]
> 260 °C	< 1e-08 M	< 1e-08 M	O=c1[nH]nc(-c2cccc(Nc3ncc4nnn(-c5cccc(F)c5)c4n3)c2)[nH]1 [Compound 1]
> 260 °C	< 1e-08 M	< 1e-08 M	Fc1cccc(-n2nnc3cnc(Nc4cccc(-c5cnccn5)c4)nc32)c1 [Compound 2]
208 to 212 °C	< 1e-08 M	< 1e-08 M	Fc1cccc(-n2nnc3cnc(Nc4cccc(-c5cccnc5)c4)nc32)c1 [Compound 30]
> 260 °C	< 1e-08 M	< 1e-08 M	N#CCc1cccc(-n2nnc3cnc(Nc4cccc(-c5ccnc(N)n5)c4)nc32)c1 [Compound 87]
210 to 214 °C	< 1e-08 M	< 1e-08 M	OCc1cccc(-n2nnc3cnc(Nc4cccc(-c5cnco5)c4)nc32)c1 [Compound 96]
	< 1e-08 M	< 1e-08 M	Fc1cccc(-n2nnc3cnc(Nc4cccc(-c5ncc[nH]5)c4)nc32)c1 [Compound 149]
	< 1e-08 M	< 1e-08 M	Nc1nccc(-c2cccc(Nc3ncc4nnn(-c5ccccc5)c4n3)c2)n1 [Compound 151]

Further lines, the compound ahead of its results:

Compound	melting point	IC50 (GSK3β)	IC50 (GSK3alpha)
CN1CCN(c2cccc(Nc3ncc4nnn(-c5cccc(F)c5)c4n3)c2)CC1 (as salt: HCl) [Compound 36]	> 250 °C		
CN1CCN(c2ccc(Nc3ncc4nnn(C5CCCCC5)c4n3)cc2)CC1 [Compound 4]	167 °C		
O=[N+]([O-])c1cc(Nc2ncc3nnn(C4CCCCC4)c3n2)ccc1N1CCOCC1 [Compound 5]	161.9 °C	1e-08 to 1e-07 M	
Cn1nccc1-c1cccc(Nc2ncc3nnn(-c4ccccc4)c3n2)c1 [Compound 9]	216 °C	< 1e-08 M	< 1e-08 M
CN1CCN(c2ccc(Nc3ncc4nnn(-c5cccc(CC#N)c5)c4n3)cc2)CC1 [Compound 88]	210 to 212 °C	< 1e-08 M	< 1e-08 M
CC(=O)NCc1cccc(-n2nnc3cnc(Nc4cccc(-c5cnco5)c4)nc32)c1 [Compound 115]	156 to 160 °C	< 1e-08 M	< 1e-08 M
COCC(=O)NCc1cccc(-n2nnc3cnc(Nc4cccc(-c5cnco5)c4)nc32)c1 [Compound 122]	210 to 214 °C	< 1e-08 M	< 1e-08 M
NS(=O)(=O)c1cccc(-n2nnc3cnc(Nc4cccc(-c5cnco5)c4)nc32)c1 [Compound 145]		< 1e-08 M	< 1e-08 M
Cn1nnnc1-c1cccc(Nc2ncc3nnn(-c4cccc(S(N)(=O)=O)c4)c3n2)c1 [Compound 146]		1e-08 M	< 1e-08 M
Nc1nccc(-c2cccc(Nc3ncc4nnn(-c5cccc(S(N)(=O)=O)c5)c4n3)c2)n1 [Compound 147]		< 1e-08 M	< 1e-08 M
Cn1cc(Br)c(-c2cccc(Nc3ncc4nnn(-c5cccc(CCO)c5)c4n3)c2)n1 [Compound 152]		< 1e-08 M	< 1e-08 M
